Assay results: publication PMC5339874, “Fluorene-9-bisphenol is anti-oestrogenic and may cause adverse pregnancy outcomes in mice” (Nature Communications, 2017)

Columns and labels:
female CD-1 mice = test: Exposure experiment through drinking water; assay type: in vivo; settings: 10-day exposure via drinking water; no statistically significant difference (P>0.05)
Experimental: Mice with a maximal difference in body weight of 1 g were selected for the experiments and randomly assigned to either the treatment or control groups. […] The animals were fed ad libitum an oestrogen-free diet from Trophic Animal Feed High-tech Co., Ltd. (Nantong, China), and drinking water was provided ad libitum in glass bottles. Before the experiments, the mice were randomly assigned to five groups (n=8). Ultra-pure water was used as a control. FULV was dissolved in ultra-pure water to a concentration of 100 ng l^−1 and used as a positive control. […] Two plastic drinking bottles labelled ‘BPA-free', of different brands, were purchased and denoted Bottle A and Bottle B. The plastic bottles were filled with boiling ultra-pure water from a stainless steel electric water heater and allowed to cool down to room temperature before the animal experiment. The BHPF levels in the cooled boiled waters from Bottle A, Bottle B and the stainless steel electric water heater were determined by GC–MS. No BHPF was detected in the cooled boiled water from the stainless steel electric water heater. The cooled boiled waters from Bottle A and Bottle B were transferred to glass bottles during the experiment. The exposure experiment was performed for 10 days beginning on PND 24. After the period of exposure, the mice were weighed and killed in turns for each group, whereby in each turn only one mouse in a group was killed. Blood was collected by cardiac puncture soon after each animal was killed, and the uteri were removed, blotted and weighed by one experimenter to reduce the risk of bias in the data collection and immediately frozen in liquid nitrogen for gene expression analysis. The relative uterine weight was calculated to evaluate the anti-uterotrophic activity. […] The serum BHPF levels were analysed by GC–MS using the same method as that for human serum. The gene expressions of sprr2a and sprr2b in the uteri were determined by Q-RT-PCR.

[1] = tested on: MCF-7 human breast cancer cells; design: method as in earlier work; settings: granted patent CN102727470; cited from earlier work
[2] = tested on: human choriocarcinoma JEG-3 cells; test: WST-1 cell proliferation assay (cytotoxicity); assay type: cell-based; settings: from 1.0 × 10^−6 M to lower concentrations; 24 h
Experimental: Dual-luciferase reporter assays were carried out primarily according to the method described in a previous study. In short, full-length sequences of human oestrogen receptor α and β were amplified by RT-PCR using mRNA from MCF-7 (Supplementary Table 3), and inserted into a pSVSPORT1 (Invitrogen); the resulting constructs were termed pSVhERα and pSVhERβ. A reporter plasmid containing ERE was constructed by inserting four tandem repeats of an ERE of Xenopus laevis vitellogenin A2 into a pGL4.23 vector (Promega), and was termed pGL4-ERE-luc. All of the plasmids constructed were confirmed by sequence analysis. […] The assays were performed in quadruplicate, and the results were expressed as the fold induction of the control after normalization against Renilla luciferase activity. Sigmoidal dose-effect curves were calculated using the GraphPad Prism 4 software. The IC50 values were calculated on the basis of the sigmoidal dose-effect curves. […] After another 24 h, 20 μl of 5 mM WST-1 with 0.2 mM 1-Methoxy-5-methylphenazinium methylsulfate was added for 4 h before the absorbance at 490 nm was measured with a microplate reader (iMark, BioRad). […]
Cell viability was determined using the cell proliferation reagent WST-1 (DOJINDO, Mashiki, Japan). […]
1-Methoxy-5-methylphenazinium methylsulfate was added for four hours before the absorbance at 490 nm was measured with a microplate reader (iMark, BioRad). […]

Oc1ccc(C2(c3ccc(O)cc3)c3ccccc3-c3ccccc32)cc1 [BHPF, 9,9-bis(4-hydroxyphenyl)-fluorene]
expression of sprr2a in the uteri (Q-RT-PCR) (female CD-1 mice): decreased
proliferation of MCF-7 human breast cancer cells [1]: inhibited the proliferation
cytotoxicity [2]: no obvious cytotoxicity
